Patent publication US10981881B2, “FXR (NR1H4) modulating compounds” (Gilead Sciences, Inc., priority 2016, dated 2021)

Key:
[1] = Metabolite ID assay in human liver microsomes; type: in vitro ADME; conditions: human liver microsomes 1 mg/mL, 1 mM NADPH, 0, 30, 60 minutes
Protocol: The metabolic stability of Example 3 and Comparative Example 1 in human liver microsomes was conducted according to the following procedure. Human liver microsomes (35 μL protein concentration 20 mg/mL), 350 μL of 100 mM potassium phosphate buffer (pH 7.4), 245 μL of deionized water and 0.7 μL of compound stock solution (5 mM) were combined in a 1.5 mL microcentrifuge tube. The tube was sealed and gently vortexed for 10 seconds, then placed in an Eppendorf ThermoMixer C and pre-warmed at 37° C. with shaking at 1100 rpm for 5 minutes.
NADPH solution (70 μL; 10 mM in water) was added while shaking, the mixture was aspirated several times with pipet, and 200 μL was removed to a fresh 1.5 mL microcentrifuge tube on ice containing 200 μL of cold acetonitrile. […]
The chilled aliquots were centrifuged at 14,300 rpm in a microcentrifuge for 10 minutes at 10° C., then the supernatant was transferred to a deepwell (1 mL) 96 well plate and sealed with a silicon mat. […] 20 μL samples were analyzed by UPLC-MS in order to identify and quantify the metabolites (Agilent 1290 G4220 binary pump UPLC with Agilent G1316 TCC column oven; Waters Acquity UPLC BEH C18 (130 Å pore size, 1.7 μm particle size, 2.1×50 mm) column held at 40° C.; Agilent 1290 G4212 DAD diode array with wavelength range 190 to 400 nm; Thermo Electron Orbitrap Elite mass spectrometer in FTMS positive mode). […]

FGF19 = conditions: cynomolgus monkey, in vivo, po, 300 mg/kg
Protocol: In vivo pharmacodynamics of a representative compound of Formula (I) and a comparative example compound were determined as follows.
Each dosing group consisted of three male Cynomolgus monkeys. At dosing, the animals weighed between 2.5 and 4.4 kg.
The test articles were administered to the monkeys via oral gavage at 5 mL/kg. Prior to withdrawal, the gavage tube was flushed with approximately 10 mL of water.
Venous blood samples were taken at specified time points after dosing from each animal. The blood samples were collected and transferred into tubes containing potassium (K2) EDTA anticoagulant.
The FGF19 ELISA assay kit from BioVendor (product number RD191107200R) was used to determine FGF19 concentrations in the collected blood samples.
An aliquot of 50 μL of each plasma sample from the 10 and 30 mg/kg dosing groups and the t=0 samples from the 100 and 300 mg/kg groups were treated with 200 μL of acetonitrile (ACN) containing internal standard. […] Samples exceeding the calibration range of the instrument were diluted and re-analyzed. […]
An API 5000 triple quadrupole mass spectrometer from AB Sciex, Foster City, Calif. was used in multiple reaction monitoring mode to quantify the compounds.

| Compound | formation of diol metabolite M1 [1] | maximal plasma AUC achieved (FGF19) | plasma FGF19 Cmax (FGF19; male) |
| --- | --- | --- | --- |
| O=C(O)c1cnc(N2CC(O)(c3ccc(OCc4c(-c5c(Cl)cccc5Cl)noc4C4CC4)cc3Cl)C2)c(F)c1 [Comparative Example 1] | metabolized to a diol compound (M1) | – | – |
| O=C(O)c1cnc(N2CC(O)(c3ccc(OCc4c(-c5c(Cl)cc(F)cc5Cl)noc4C4CC4)cc3Cl)C2)c(F)c1 [Example 3, 6-(3-(2-chloro-4-((5-cyclopropyl-3-(2,6-dichloro-4-fluorophenyl)isoxazol-4-yl)methoxy)phenyl)-3-hydroxyazetidin-1-yl)-5-fluoronicotinic acid] | – | comparable | 16 ng/mL |
